IC50 and inhibition of growth data for 9 compounds are collected here from ChEMBL document CHEMBL3392978 (Eur J Med Chem, 2015).

One may read the pIC50 as the negative decadic logarithm of the IC50, by convention in mol/L.

Experiment [1] has as its system A-375. Put plainly: Cytotoxicity against human A375 cells assessed as reduction in cell viability after 72 hrs by MTT assay. In kind it is functional, cell-based. Particulars: A-375, 72 h.
Experiment [2] relates to MDA-MB-453. Put plainly: Cytotoxicity against human MDA-MB-453 cells assessed as reduction in cell viability after 72 hrs by MTT assay. In kind it is functional, cell-based. Particulars: MDA-MB-453, 72 h. (In general: Tetrazolium assays rely on reduction of a dye to a coloured formazan, in cell work by metabolically active cells.)
The test system of experiment [3] is SW480. The experiment is described as follows: Growth inhibition of human SW480 cells at 10 uM after 72 hrs by MTT assay. In kind it is functional. Particulars: SW480, 72 h, read-out: GI.
In experiment [4] the test system is HepG2. Put plainly: Cytotoxicity against human HepG2 cells assessed as reduction in cell viability after 72 hrs by MTT assay. In kind it is functional, cell-based. The settings on record: HepG2, 72 h.
The test system of experiment [5] is A-375. Put plainly: Growth inhibition of human A375 cells at 10 uM after 72 hrs by MTT assay. Particulars: A-375, 72 h, read-out: GI. In kind it is functional.
For experiment [6], the system named is HepG2. Put plainly: Growth inhibition of human HepG2 cells at 10 uM after 72 hrs by MTT assay. In kind it is functional. Particulars: HepG2, 72 h, read-out: GI.
Experiment [7] has as its system MCF7. Put plainly: Growth inhibition of human MCF7 cells at 10 uM after 72 hrs by MTT assay. In kind it is functional. Particulars: MCF7, 72 h, read-out: GI.
In experiment [8] the test system is MDA-MB-453. Put plainly: Growth inhibition of human MDA-MB-453 cells at 10 uM after 72 hrs by MTT assay. In kind it is functional. The settings on record: MDA-MB-453, 72 h, read-out: GI.
In experiment [9] the test system is NCI-H522. The experiment is described as follows: Growth inhibition of human NCI-H522 cells at 10 uM after 72 hrs by MTT assay. In kind it is functional. The settings on record: NCI-H522, 72 h, read-out: GI.
Experiment [10] has as its system SW480. Put plainly: Cytotoxicity against human SW480 cells assessed as reduction in cell viability after 72 hrs by MTT assay. In kind it is functional, cell-based. The settings on record: SW480, 72 h.
Experiment [11] concerns the target Serine/threonine-protein kinase B-raf (Homo sapiens, UniProt P15056). The experiment is described as follows: Inhibition of BRAF (unknown origin) incubated for 15 mins by fluorescence based assay.

The structures appear in SMILES notation. pIC50: −log10 of the molar value.

Chain of Serine/threonine-protein kinase B-raf (P15056 whole entry): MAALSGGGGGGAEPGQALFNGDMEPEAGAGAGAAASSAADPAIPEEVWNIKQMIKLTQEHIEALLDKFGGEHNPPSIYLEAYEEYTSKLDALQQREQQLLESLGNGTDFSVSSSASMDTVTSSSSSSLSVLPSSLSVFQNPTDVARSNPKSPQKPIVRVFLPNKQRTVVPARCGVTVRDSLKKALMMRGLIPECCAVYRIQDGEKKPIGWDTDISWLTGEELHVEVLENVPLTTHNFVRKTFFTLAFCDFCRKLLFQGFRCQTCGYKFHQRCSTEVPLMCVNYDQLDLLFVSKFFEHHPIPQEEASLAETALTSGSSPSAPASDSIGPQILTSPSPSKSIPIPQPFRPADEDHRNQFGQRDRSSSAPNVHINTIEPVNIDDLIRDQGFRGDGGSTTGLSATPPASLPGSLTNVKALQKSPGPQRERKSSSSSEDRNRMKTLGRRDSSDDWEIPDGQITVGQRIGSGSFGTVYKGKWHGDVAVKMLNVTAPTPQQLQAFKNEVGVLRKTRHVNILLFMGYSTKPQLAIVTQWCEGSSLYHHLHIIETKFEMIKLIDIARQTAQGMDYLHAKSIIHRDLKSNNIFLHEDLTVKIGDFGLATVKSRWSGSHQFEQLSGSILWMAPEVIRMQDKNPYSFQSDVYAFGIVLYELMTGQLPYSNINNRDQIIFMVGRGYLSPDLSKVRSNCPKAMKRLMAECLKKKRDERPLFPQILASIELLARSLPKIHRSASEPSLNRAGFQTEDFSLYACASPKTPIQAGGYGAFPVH

Consider `O=C(Nc1ccc(Cl)c(C(=O)Nc2ccc(-c3ncc[nH]3)nc2)c1)c1ccc(Cl)c(Cl)c1`, for which the pIC50 in experiment [1] is 5.03; in experiment [2], 4.94; in experiment [4], 4.82; in experiment [10], 5.03. Besides, the inhibition of growth at 10 µM in experiment [3] is 47.2%; in experiment [5], 46.1%; in experiment [6], 57%; in [7], 35.5%; in experiment [8], 45.3%; in experiment [9], -21.1%.
Take `O=C(Nc1ccc(Cl)c(Cl)c1)c1ccc(Cl)c(C(=O)Nc2ccc(-c3ncc[nH]3)nc2)c1`: the inhibition of growth at 10 µM in [3] was 13.4%; in experiment [5] it was 28.4%; in experiment [6] it was 57%; in experiment [7], 25%; in experiment [8] it was 36.3%; in [9], -28.6%. In addition, the pIC50 in [4] was 5.40.
In the case of `Cc1ccc(NC(=O)c2ccc(Cl)c(C(F)(F)F)c2)cc1C(=O)Nc1ccc(-c2ncc[nH]2)nc1`, the pIC50 is 4.84 in experiment [1] and 5.21 in [4]. The inhibition of growth at 10 µM in [3] was 16.7%; in experiment [5], 42.9%; in [6], 47.9%; in [7], 30.5%; in experiment [8], 12.5%; in experiment [9] it was -11.4%.
`COc1cccc(C(=O)Nc2ccc(C)c(C(=O)Nc3ccc(-c4ncc[nH]4)nc3)c2)c1`: the pIC50 in [11] was 5.61. Also, the inhibition of growth at 10 µM in [3] was 17.6%; in [5], 28.2%; in [6], -4.9%; in experiment [7], 27.9%; in experiment [8] it was 18%; in [9] it was 8.7%.
Consider `COc1ccc(C(=O)Nc2ccc(C)c(C(=O)Nc3ccc(-c4ncc[nH]4)nc3)c2)cc1`, for which the pIC50 in experiment [11] is 4.39. The inhibition of growth at 10 µM in experiment [3] came to 26.5%; in experiment [5], 18.7%; in experiment [6], 18.7%; in experiment [7], 36%; in experiment [8], 23.5%; in experiment [9], 27.1%.
On to `O=C(Nc1ccc(Cl)c(C(=O)Nc2ccc(-c3ncc[nH]3)nc2)c1)c1ccc(Cl)c(Br)c1`, for which the inhibition of growth at 10 µM in [3] was 12.4%; in [5] it was 38.4%; in experiment [6], 35.5%; in experiment [7], 29.1%; in experiment [8], 15.1%; in experiment [9] it was -15.4%.
Consider `O=C(Nc1ccc(Cl)c(C(=O)Nc2ccc(-c3ncc[nH]3)nc2)c1)c1cccc(C(F)(F)F)c1`, for which the inhibition of growth at 10 µM was 26.9% in experiment [3]; 44.5% in [5]; 39.5% in experiment [6]; 39% in experiment [7]; 46.1% in experiment [8]; -27.4% in [9].
Consider `Cc1ccc(NC(=O)c2ccc(F)cc2)cc1C(=O)Nc1ccc(-c2ncc[nH]2)nc1`, for which the inhibition of growth at 10 µM was 10.1% in [3]; 24.9% in experiment [5]; 25% in experiment [6]; 28.8% in [7]; 22% in experiment [8]; 6.3% in [9].
For `O=C(Nc1ccc(Cl)c(C(=O)Nc2ccc(-c3ncc[nH]3)nc2)c1)c1cccc(F)c1`, the inhibition of growth at 10 µM in experiment [3] was 16.7%; in [5], 32.3%; in experiment [6], -12.9%; in [7] it was 29.7%; in [8], 19%; in experiment [9], 7.6%.
